Patent US20240425501A1, “NOVEL BICYCLIC HETEROARYL DERIVATIVES AS SOS1:KRAS PROTEINPROTEIN INTERACTION INHIBITORS” (SATYARX PHARMA INNOVATIONS PVT LTD, priority 2021, published 2024)

target: T1, hSOS1 enzyme / KRAS (G12C), GST-Tag, GDP-bound protein (Homo sapiens, UniProt Q07889); assay: SOS1-mediated KRAS guanine nucleotide exchange (GEF) assay, HTRF ("On Assay"); format: biochemical; conditions: 1 μM compound
T1 sequence (Q07889 564-1049 limits assumed): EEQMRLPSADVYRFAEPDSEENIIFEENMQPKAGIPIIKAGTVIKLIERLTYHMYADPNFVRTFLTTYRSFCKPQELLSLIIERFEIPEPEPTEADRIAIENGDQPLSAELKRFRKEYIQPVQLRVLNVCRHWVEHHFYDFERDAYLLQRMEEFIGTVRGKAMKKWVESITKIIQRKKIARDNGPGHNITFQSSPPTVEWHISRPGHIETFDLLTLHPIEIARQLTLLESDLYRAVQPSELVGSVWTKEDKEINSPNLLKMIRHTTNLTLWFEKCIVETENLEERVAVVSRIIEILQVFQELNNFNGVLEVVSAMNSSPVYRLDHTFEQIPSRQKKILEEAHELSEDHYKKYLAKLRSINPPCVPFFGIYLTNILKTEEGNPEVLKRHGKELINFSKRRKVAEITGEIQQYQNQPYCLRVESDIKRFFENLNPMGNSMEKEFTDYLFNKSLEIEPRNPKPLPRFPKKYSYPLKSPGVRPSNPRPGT
In short: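 Compounds were preincubated 10 min at 25 °C with GDP-loaded GST-KRAS G12C and Tb-anti-GST (working solution 100 nM/2 nM) in HEPES pH 7, 5 mM MgCl2. hSOS1 plus DY-647P-labelled GTP (working solution 20 nM/200 nM) was then added for 10 min. HTRF was read at 665/615 nm with 320 nm excitation, and wells lacking SOS1 served as negative control.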

Row | SMILES | inhibition at 1 µM
1 | COCCNc1nc(N[C@H](C)c2cc(N)cc(C(F)(F)F)c2)c2cc(N3CCOCC3)ncc2n1 [Example 36, (R)—N4-(1-(3-amino-5-(trifluoromethyl)phenyl)ethyl)-N2-(2-methoxyethyl)-6-morpholinopyrido[3,4-d]pyrimidine-2,4-diamine] | ≥ 50%
2 | C[C@@H](Nc1nc(Cl)nc2cnc(N3CCN(C4CCC4)CC3)cc12)c1cc(N)cc(C(F)(F)F)c1 [Example 28, (R)—N-(1-(3-amino-5-(trifluoromethyl)phenyl)ethyl)-2-chloro-6-(4-cyclobutylpiperazin-1-yl)pyrido[3,4-d]pyrimidin-4-amine] | ≥ 50%
3 | Cc1nnc(N[C@H](C)c2cc(N)cc(C(F)(F)F)c2)c2cc(N3CCOCC3)cnc12 [Example 87, (R)—N-(1-(3-amino-5-(trifluoromethyl)phenyl)ethyl)-8-methyl-3-morpholinopyrido[2,3-d]pyridazin-5-amine] | ≥ 50%
4 | CNc1cc2c(N[C@H](C)c3cc(N)cc(C(F)(F)F)c3)nc(N3CCC3)nc2cn1 [Example 56, (R)—N4-(1-(3-amino-5-(trifluoromethyl)phenyl)ethyl)-2-(azetidin-1-yl)-N6-methylpyrido[3,4-d]pyrimidine-4,6-diamine] | ≥ 50%
5 | C[C@@H](Nc1nc(Cl)cc2ncc(N3CCOCC3)cc12)c1cc(N)cc(C(F)(F)F)c1 [Example 89, (R)—N-(1-(3-amino-5-(trifluoromethyl)phenyl)ethyl)-7-chloro-3-morpholino-1,6-naphthyridin-5-amine] | ≥ 50%
6 | CNc1nc(N[C@H](C)c2cc(N)cc(C(F)(F)F)c2)c2cc(N3CCOCC3)ncc2n1 [Example 18, (R)—N4-(1-(3-amino-5-(trifluoromethyl)phenyl)ethyl)-N2-methyl-6-morpholinopyrido[3,4-d]pyrimidine-2,4-diamine] | ≥ 50%
7 | C[C@@H](Nc1nc(NCCO)nc2cnc(N3CCCC3)cc12)c1cc(N)cc(C(F)(F)F)c1 [Example 12, (R)-2-((4-((1-(3-amino-5-(trifluoromethyl)phenyl)ethyl)amino)-6-(pyrrolidin-1-yl)pyrido[3,4-d]pyrimidin-2-yl)amino)ethan-1-ol] | ≥ 50%
8 | COCCNc1nc(N[C@H](C)c2cc(N)cc(C(F)(F)F)c2)c2cc(N3CCCC3)ncc2n1 [Example 14, (R)—N4-(1-(3-amino-5-(trifluoromethyl)phenyl)ethyl)-N2-(2-methoxyethyl)-6-(pyrrolidin-1-yl)pyrido[3,4-d]pyrimidine-2,4-diamine] | ≥ 50%
9 | CCN1CCN(c2cc3c(N[C@H](C)c4cccc(C(F)F)c4F)nc(Cl)nc3cn2)CC1 [Example 62, (R)-2-chloro-N-(1-(3-(difluoromethyl)-2-fluorophenyl)ethyl)-6-(4-ethylpiperazin-1-yl)pyrido[3,4-d]pyrimidin-4-amine] | ≥ 50%
10 | C[C@@H](Nc1nc(Cl)nc2cnc(N3CCN(C)CC3)cc12)c1cccc(C(F)F)c1F [Example 61, (R)-2-chloro-N-(1-(3-(difluoromethyl)-2-fluorophenyl)ethyl)-6-(4-methylpiperazin-1-yl)pyrido[3,4-d]pyrimidin-4-amine] | ≥ 50%
11 | C[C@@H](Nc1nc(N2CCC2)nc2cnc(N(C)C)cc12)c1cc(N)cc(C(F)(F)F)c1 [Example 53, (R)—N4-(1-(3-amino-5-(trifluoromethyl)phenyl)ethyl)-2-(azetidin-1-yl)-N6,N6-dimethylpyrido[3,4-d]pyrimidine-4,6-diamine] | ≥ 50%
12 | CCN1CCN(c2cc3c(N[C@H](C)c4cc(N)cc(C(F)(F)F)c4)nc(Cl)nc3cn2)CC1 [Example 24, (R)—N-(1-(3-amino-5-(trifluoromethyl)phenyl)ethyl)-2-chloro-6-(4-ethylpiperazin-1-yl)pyrido[3,4-d]pyrimidin-4-amine] | ≥ 50%
13 | C[C@@H](Nc1nc(N2CCOCC2)nc2cnc(N3CCCC3)cc12)c1cc(N)cc(C(F)(F)F)c1 [Example 5, (R)—N-(1-(3-amino-5-(trifluoromethyl)phenyl)ethyl)-2-morpholino-6-(pyrrolidin-1-yl)pyrido[3,4-d]pyrimidin-4-amine] | < 50%
